Measured values taken from PubChem BioAssay (NCI).
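Briefly, cells in 96-well plates were exposed to five compound concentrations for 48 h, and endpoints were estimated by linear interpolation. TGI denotes the concentration required for complete inhibition of growth.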

Columns and labels:
Assay in all cases: growth of human tumour cells (NCI), 48 h
[1] = test system: IGROV1 ovarian
[2] = test system: OVCAR-3 ovarian
[3] = test system: K-562 leukemia
[4] = test system: DU-145 prostate
[5] = test system: MOLT-4 leukemia
[6] = test system: NCI/ADR-RES ovarian
[7] = test system: RPMI-8226 leukemia
[8] = test system: CCRF-CEM leukemia
[9] = test system: LOX IMVI melanoma
[10] = test system: NCI-H460 lung

Q: With `O=P1(C(O)/C=C/c2ccccc2)N(Cc2ccccc2)[C@@H]2CCCC[C@H]2N1Cc1ccccc1` (some centres undefined) as the molecule, how does the TGI [1] read?
A: 14.4 µM

Q: And the TGI [2]?
A: 27.8 µM

Q: And the TGI [3]?
A: 16.4 µM

Q: What about the TGI [4] of the same molecule?
A: 45.3 µM

Q: And the TGI [5]?
A: 9.77 µM

Q: What about the TGI [6] of the same molecule?
A: 51.6 µM

Q: And the TGI [7]?
A: 4.59 µM

Q: And the TGI [8]?
A: > 100 µM

Q: And the TGI [9]?
A: 13.7 µM

Q: And the TGI [10]?
A: 14.7 µM

Q: With `Cc1ccc2c(c1C)CC1(Cc3c(C)ccc(C)c3C1=O)C2=O` (centres undefined) as the molecule, how does the TGI [1] read?
A: > 100 µM

Q: What about the TGI [3] of the same molecule?
A: > 100 µM

Q: What about the TGI [4] of the same molecule?
A: > 100 µM

Q: What about the TGI [5] of the same molecule?
A: > 100 µM

Q: What about the TGI [6] of the same molecule?
A: > 100 µM

Q: And the TGI [7]?
A: > 100 µM

Q: And the TGI [8]?
A: > 100 µM

Q: And the TGI [10]?
A: > 100 µM

Q: For `CCCCN1C(=O)CC2[C@@H]3CCc4cc(OC)ccc4C3CC[C@]2(C)C1=O` (some centres undefined), which TGI [1] is on record?
A: > 10 µM

Q: What about the TGI [2] of the same molecule?
A: > 10 µM

Q: And the TGI [3]?
A: > 10 µM

Q: What about the TGI [4] of the same molecule?
A: > 10 µM

Q: And the TGI [5]?
A: > 10 µM

Q: And the TGI [6]?
A: > 10 µM

Q: And the TGI [7]?
A: > 10 µM

Q: And the TGI [8]?
A: > 10 µM

Q: And the TGI [9]?
A: > 10 µM

Q: What about the TGI [10] of the same molecule?
A: > 10 µM

Q: With `Nc1nncc2[nH]cnc12` as the molecule, how does the TGI [1] read?
A: > 100 µM

Q: And the TGI [2]?
A: > 100 µM

Q: What about the TGI [3] of the same molecule?
A: > 100 µM

Q: And the TGI [4]?
A: > 100 µM

Q: And the TGI [5]?
A: > 45.3 µM

Q: And the TGI [6]?
A: > 100 µM

Q: What about the TGI [7] of the same molecule?
A: > 56 µM

Q: And the TGI [8]?
A: 20.7 µM

Q: And the TGI [9]?
A: > 100 µM

Q: And the TGI [10]?
A: > 100 µM

Q: With `Cc1cn(CCCCCOC(=O)NC(CCCNC(N)=O)C(=O)O)c(=O)[nH]c1=O` (centres undefined) as the molecule, how does the TGI [1] read?
A: > 100 µM

Q: And the TGI [2]?
A: > 100 µM

Q: And the TGI [3]?
A: > 100 µM

Q: What about the TGI [4] of the same molecule?
A: > 100 µM

Q: And the TGI [5]?
A: > 100 µM

Q: What about the TGI [6] of the same molecule?
A: > 100 µM

Q: What about the TGI [7] of the same molecule?
A: > 100 µM

Q: And the TGI [8]?
A: > 100 µM

Q: And the TGI [9]?
A: > 100 µM

Q: What about the TGI [10] of the same molecule?
A: > 100 µM

Q: What does the source list for `N#Cc1nc(CCCN2C(=O)c3ccccc3C2=O)oc1N`?
A: TGI [1]: > 100 µM; TGI [2]: > 100 µM; TGI [3]: > 100 µM; TGI [4]: > 100 µM; TGI [5]: > 100 µM; TGI [6]: > 100 µM; TGI [7]: > 100 µM; TGI [8]: > 100 µM; TGI [9]: > 100 µM; TGI [10]: > 100 µM

Q: Which results are given for `Cn1c2c(c3ccccc31)CCN1C(=O)C34CCCC3CC21S4` (centres undefined)?
A: TGI [1]: > 100 µM; TGI [2]: > 100 µM; TGI [3]: > 100 µM; TGI [4]: > 100 µM; TGI [5]: > 100 µM; TGI [6]: > 100 µM; TGI [7]: > 100 µM; TGI [9]: > 100 µM

Q: Which TGI [1] does the source give for `NC(N)=NS(=O)(=O)c1ccc(NC(=O)c2cccc3c(NNc4ccc(S(N)(=O)=O)cc4)c4ccccc4nc23)cc1` here?
A: > 100 µM

Q: And the TGI [2]?
A: > 100 µM

Q: What about the TGI [3] of the same molecule?
A: 55 µM

Q: And the TGI [4]?
A: > 100 µM

Q: And the TGI [5]?
A: 74.1 µM

Q: And the TGI [6]?
A: > 100 µM

Q: What about the TGI [7] of the same molecule?
A: > 100 µM

Q: What about the TGI [8] of the same molecule?
A: > 100 µM

Q: What about the TGI [9] of the same molecule?
A: 36.5 µM

Q: What about the TGI [10] of the same molecule?
A: > 100 µM

Q: With `O=P(OCc1ccccc1)(OCc1ccccc1)C(O)/C=C/c1ccccc1` (centres undefined) as the molecule, how does the TGI [1] read?
A: 49.2 µM

Q: And the TGI [2]?
A: 43.6 µM

Q: What about the TGI [3] of the same molecule?
A: > 100 µM

Q: What about the TGI [4] of the same molecule?
A: > 100 µM

Q: And the TGI [5]?
A: 48.1 µM

Q: What about the TGI [6] of the same molecule?
A: 62.9 µM

Q: What about the TGI [7] of the same molecule?
A: 82.8 µM

Q: And the TGI [9]?
A: 31.5 µM

Q: `C[n+]1c(-c2ccc(NC(=O)c3ccc(C(=O)Nc4ccc(-c5cn6ccccc6[n+]5C)cc4)cc3)cc2)cn2ccccc21` was tested. Which TGI [1] did it give?
A: > 100 µM

Q: And the TGI [2]?
A: > 100 µM

Q: And the TGI [3]?
A: > 100 µM

Q: And the TGI [4]?
A: > 100 µM

Q: And the TGI [5]?
A: > 100 µM

Q: What about the TGI [6] of the same molecule?
A: > 100 µM

Q: What about the TGI [7] of the same molecule?
A: > 100 µM

Q: What about the TGI [8] of the same molecule?
A: > 100 µM

Q: What about the TGI [9] of the same molecule?
A: > 100 µM

Q: What about the TGI [10] of the same molecule?
A: > 100 µM
